One block for each molecule: values may come before it.
Legend:
hepatocytes = format: in vitro ADME; conditions: human
Protocol: The human […] stability of the compounds as predicted hepatocyte clearance in L/hr/kg was assessed. Compounds to be tested were diluted to 200 μM (4 μl of 10 mM DMSO stock into 196 μl ACN:H2O (50:50). Propranolol was used as a positive control, and buffer only without hepatocytes as 0% control. These were further diluted 4 μl with 891 μl KHB buffer (InVitroGRO catalog number Z99074) to provide 2× dosing solution. To each well of 24 well plate, 250 μl of the 2× dosing solution was added to each well with 250 μl of hepatocytes cells (1×10^6 viable cells/ml per well) or KHB for control samples to achieve a final compound concentration of 1 μM during incubation. The final solvent concentration was 0.01% DMSO and 0.25% ACN. The culture plate was placed on a rocker and incubated at 37° C., 5% CO2. Samples were collected at time 0, 1, 3, and 6 hours. The loss of parent compound was determined using LC-MS methods against a standard curve.

[1] = tested on: basophils (CD63 expression) in human whole blood; experiment: 384-well HTBS Whole Blood CD63 Basophil Assay; format: cell-based; conditions: human whole blood (25% blood); comparison table
Protocol: Syk activity was assessed in relation to reduced activation of basophils as measured by the expression of CD63 in a human whole blood basophil cellular assay (25% blood). Basophil activation was measured in human whole blood using the Flow CAST kit (Buhlmann Laboratories AG, Baselstrasse, Switzerland) following the protocol provided by the manufacturer with minor modifications. Fresh human whole blood in heparin was collected and delivered same day (AllCells, Emeryville, Calif.). Whole blood samples were incubated with either DMSO (1% final) or serial diluted compounds in DMSO for 60 minutes at 37° C. Basophils were activated using the anti-FceRI mAb and stained with anti-CD63-FITC and anti-CCR3-PE for 20 minutes at 37° C. (per well: 50 μL of whole blood was mixed with 113 μL of stimulation buffer, 8.5 μL anti-FceRI mAb, 8.5 μL Ab stain CCR3-PE/CD63-FITC). Cells were centrifuged at 1000×g for 18 minutes and 150 μL/well of supernatant removed. Red blood cells were lysed and cells fixed by 2 rounds of cell lysing: resuspending cell pellets with 150 μL/well 1× lysis buffer, incubating at room temperature for 10 minutes, and collecting cell pellets by centrifuging for 1200 rpms for 5 minutes. Cells were washed with 150 μL/well wash buffer twice, and resuspended in a final volume of 75 μL/well of wash buffer for either immediate flow cytometery analysis or overnight incubation at 4° C. followed by flow cytometry analysis. Degranulation (basophil activation) was detected by CD63 surface expression on CCR3 positive cells. The percent CD63 positive cells within the gated basophil population were determined and normalized to the DMSO (negative control) and control compound (positive control).

[2] = tested on: B cells (CD19+) in PBMCs from cGVHD and inactive cGVHD subjects; experiment: Apoptosis Assay: B cells in PBMCs from subjects with active or inactive cGVHD, flow cytometry; format: cell-based, human; conditions: 48 hours
Protocol: Entospletinib (Formula I) was prepared as a 10 mM stock in dimethyl sulfoxide (DMSO). Before use, entospletinib was thawed from 10 mM DMSO stocks frozen in 0.75 mL polypropylene tubes at −20° C.
For untreated PBMCs, DMSO alone (the diluent used to generate entospletinib stock solution) was used in the cultures at the equivalent volume as for the 1.0 μM entospletinib treatment group. The cells were then incubated for 48 hr at 37° C. and 5% CO2, harvested, and assessed for the frequency of apoptotic B cells by flow cytometry analysis as described below.
Flow Cytometry Analysis—Cultured PBMCs were washed in FACS wash buffer (PBS containing 2% FBS) and then resuspended in FACS wash containing Fc block (Human TruStain FcXTM Fc Receptor Blocking Solution from BioLegend, San Diego, Calif.) at the recommended concentration. Following a 15 minute incubation on ice, the cells were stained with Pacific Blue™ conjugated anti-human CD19 antibody (BioLegend, Inc.) for an additional 30 min and then washed in cold PBS, followed by a second wash with Annexin V Binding Buffer (Annexin V Apoptosis Detection Kit-APC, eBioscience, Inc.) according to the manufacturer's instructions. The cells were then resuspended in Annexin V Binding Buffer containing APC-conjugated Annexin V, and incubated in the dark for 15 min at RT. Finally, the cells were washed with cold Annexin V Binding Buffer, resuspended in cold Annexin V Binding Buffer containing 7-AAD (BD Biosciences), kept on ice, and analyzed immediately on a FACSCantoTM flow cytometer. Flow cytometry data files were analyzed using FlowJo software (version X) to identify B cells and determine the frequencies of apoptotic cells based on Annexin V and 7-AAD staining.
For each set of patient samples, B cell apoptosis induced by entospletinib at each concentration was determined by the following ratio: % Annexin V^+/7-AAD^− B cells (entospletinib-treated)/% Annexin V^+/7-AAD^− B cells (untreated). […] Graphic display and curve fit analysis to determine the EC50 for entospletinib apoptosis-inducing activity in active cGVHD B cells was performed using GraphPad Prism software (GraphPad Software, La Jolla, Calif).

[3] = Kinetic Solubility in phosphate buffer at pH 7.4; format: physicochemical; conditions: 37 °C, aqueous buffer, kinetic from dmso stock; phosphate buffer pH 7.4
Protocol: The kinetic solubility of compounds in phosphate buffer at pH 7.4 was assessed. The compounds to be tested were dissolved in dimethylsulfoxide at a 10 mM concentration. Stock samples were diluted, 3 μl with 297 μl of the phosphate buffer at pH 7.4 (DulBecco's phosphate buffered saline (Sigma-Aldrich D8662), overall molarity is 0.149 M and pH 7.43). The samples were then incubated for 24 hours at 37° C. with shaking, the centrifuged and an aliquot taken and tested relative to a known standard concentration of 0.1 mM.

SMILES: COc1ccc(Nc2nc(-c3cccc(N)c3)cn3ccnc23)cc1OC [6-(3-aminophenyl)-N-(3,4-dimethoxyphenyl)imidazo[1,2-a]pyrazin-8-amine, reference compound]
Hheps CL (hepatocytes): 4 mL/min/kg
IC50 [1]: 809 nM

SMILES: Cc1ncc(-c2cn3ccnc3c(Nc3ccc(N4CCOCC4)cc3)n2)cc1N [6-(5-amino-6-methylpyridin-3-yl)-N-(4-morpholinophenyl)imidazo[1,2-a]pyrazin-8-amine, reference compound]
Hheps CL (hepatocytes): 13.3 mL/min/kg
IC50 [1]: 250 nM

SMILES: Nc1cncc(-c2cn3ccnc3c(Nc3ccc(N4CCOCC4)cc3)n2)c1 [6-(5-aminopyridin-3-yl)-N-(4-morpholinophenyl)imidazo[1,2-a]pyrazin-8-amine, reference compound]
Hheps CL (hepatocytes): 11.3 mL/min/kg

SMILES: c1cn2cc(-c3ccc4cn[nH]c4c3)nc(Nc3ccc(N4CCOCC4)cc3)c2n1 [Entospletinib, 6-(1H-indazol-6-yl)-N-(4-morpholinophenyl)imidazo[1,2-a]pyrazin-8-amine]
B cell apoptosis, one subject with cGVHD with low level of baseline apoptosis ([2]; 1.0-0.0078 μM): dose-dependent increase in B cell apoptosis
B cell apoptosis, other two cGVHD subjects with higher baseline level of apoptosis ([2]; 1.0-0.0078 μM): caused an increase in B cell apoptosis
apoptosis of B cells obtained from subjects with cGVHD ([2]; 1.0-0.0078 μM): caused apoptosis of B cells
B cell apoptosis in cGVHD samples versus subjects without cGVHD ([2]; >125 nM ENTO, mean of 3 donors): statistically significant dose-dependent increase in B cell apoptosis
Annexin V+/7AAD− (frequency of parent) ([2]; Inactive #1, 7.8 nM): 47.7
Annexin V+/7AAD− (frequency of parent) ([2]; Inactive #1, 15.6 nM): 45.7
Annexin V+/7AAD− (frequency of parent) ([2]; Inactive #1, 31.3 nM): 46.6
Annexin V+/7AAD− (frequency of parent) ([2]; Inactive #1, 62.5 nM): 47.5
Annexin V+/7AAD− (frequency of parent) ([2]; Inactive #1, 125 nM): 53.4
Annexin V+/7AAD− (frequency of parent) ([2]; Inactive #1, 250 nM): 51.3
Annexin V+/7AAD− (frequency of parent) ([2]; Inactive #1, 500 nM): 48.7
Annexin V+/7AAD− (frequency of parent) ([2]; Inactive #1, 1000 nM): 44.4
Annexin V+/7AAD− (frequency of parent) ([2]; Inactive #2, 7.8 nM): 41.5
Annexin V+/7AAD− (frequency of parent) ([2]; Inactive #2, 15.6 nM): 39.8
Annexin V+/7AAD− (frequency of parent) ([2]; Inactive #2, 31.3 nM): 43.9
Annexin V+/7AAD− (frequency of parent) ([2]; Inactive #2, 62.5 nM): 42.2
Annexin V+/7AAD− (frequency of parent) ([2]; Inactive #2, 125 nM): 43.2
Annexin V+/7AAD− (frequency of parent) ([2]; Inactive #2, 250 nM): 44.9
Annexin V+/7AAD− (frequency of parent) ([2]; Inactive #2, 500 nM): 50.2
Annexin V+/7AAD− (frequency of parent) ([2]; Inactive #2, 1000 nM): 50.4
Annexin V+/7AAD− (frequency of parent) ([2]; Inactive #3, 7.8 nM): 50.4
Annexin V+/7AAD− (frequency of parent) ([2]; Inactive #3, 15.6 nM): 51.2
Annexin V+/7AAD− (frequency of parent) ([2]; Inactive #3, 31.3 nM): 51.7
Annexin V+/7AAD− (frequency of parent) ([2]; Inactive #3, 62.5 nM): 52.1
Annexin V+/7AAD− (frequency of parent) ([2]; Inactive #3, 125 nM): 52.4
Annexin V+/7AAD− (frequency of parent) ([2]; Inactive #3, 250 nM): 56.2
Annexin V+/7AAD− (frequency of parent) ([2]; Inactive #3, 500 nM): 57.1
Annexin V+/7AAD− (frequency of parent) ([2]; Inactive #3, 1000 nM): 55.6
Annexin V+/7AAD− (frequency of parent) ([2]; cGVHD #1, 7.8 nM): 40.1
Annexin V+/7AAD− (frequency of parent) ([2]; cGVHD #1, 15.6 nM): 40.4
Annexin V+/7AAD− (frequency of parent) ([2]; cGVHD #1, 31.3 nM): 42.0
Annexin V+/7AAD− (frequency of parent) ([2]; cGVHD #1, 62.5 nM): 48.2
Annexin V+/7AAD− (frequency of parent) ([2]; cGVHD #1, 125 nM): 48.2
Annexin V+/7AAD− (frequency of parent) ([2]; cGVHD #1, 250 nM): 50.7
Annexin V+/7AAD− (frequency of parent) ([2]; cGVHD #1, 500 nM): 53.6
Annexin V+/7AAD− (frequency of parent) ([2]; cGVHD #1, 1000 nM): 55.0
Annexin V+/7AAD− (frequency of parent) ([2]; cGVHD #2, 7.8 nM): 41.0
Annexin V+/7AAD− (frequency of parent) ([2]; cGVHD #2, 15.6 nM): 40.7
Annexin V+/7AAD− (frequency of parent) ([2]; cGVHD #2, 31.3 nM): 39.6
Annexin V+/7AAD− (frequency of parent) ([2]; cGVHD #2, 62.5 nM): 41.5
Annexin V+/7AAD− (frequency of parent) ([2]; cGVHD #2, 125 nM): 43.9
Annexin V+/7AAD− (frequency of parent) ([2]; cGVHD #2, 250 nM): 48.6
Annexin V+/7AAD− (frequency of parent) ([2]; cGVHD #2, 500 nM): 48.3
Annexin V+/7AAD− (frequency of parent) ([2]; cGVHD #2, 1000 nM): 53.5
Annexin V+/7AAD− (frequency of parent) ([2]; cGVHD #3, 7.8 nM): 19.6
Annexin V+/7AAD− (frequency of parent) ([2]; cGVHD #3, 15.6 nM): 20.0
Annexin V+/7AAD− (frequency of parent) ([2]; cGVHD #3, 31.3 nM): 20.8
Annexin V+/7AAD− (frequency of parent) ([2]; cGVHD #3, 62.5 nM): 21.6
Annexin V+/7AAD− (frequency of parent) ([2]; cGVHD #3, 125 nM): 26.4
Annexin V+/7AAD− (frequency of parent) ([2]; cGVHD #3, 250 nM): 29.5
Annexin V+/7AAD− (frequency of parent) ([2]; cGVHD #3, 500 nM): 32.7
Annexin V+/7AAD− (frequency of parent) ([2]; cGVHD #3, 1000 nM): 42.2

More lines, now with the values ahead:

Hheps CL (hepatocytes): 15 mL/min/kg
SMILES: COc1ccc(Nc2nc(-c3ccc(N)nc3)cn3ccnc23)cc1OC [6-(6-aminopyridin-3-yl)-N-(3,4-dimethoxyphenyl)imidazo[1,2-a]pyrazin-8-amine, reference compound]

solubility kinetic at 24 h [3]: > 90 µM
Hheps CL (hepatocytes): 2 mL/min/kg
SMILES: Cc1ncc(-c2cn3ccnc3c(Nc3ccc(N4CCN(C5COC5)CC4)cc3)n2)nc1N [Ex.-1, 6-(6-amino-5-methylpyrazin-2-yl)-N-(4-(4-(oxetan-3-yl)piperazin-1-yl)phenyl)imidazo[1,2-a]pyrazin-8-amine]

solubility kinetic at 24 h [3]: > 90 µM
Hheps CL (hepatocytes): 0.917 mL/min/kg
SMILES: Nc1cncc(-c2cn3ccnc3c(Nc3ccc(N4CCN(C5COC5)CC4)cc3)n2)n1 [Ex.-2, 6-(6-aminopyrazin-2-yl)-N-(4-(4-(oxetan-3-yl)piperazin-1-yl)phenyl)imidazo[1,2-a]pyrazin-8-amine]

solubility kinetic at 24 h [3]: > 90 µM
Hheps CL (hepatocytes): 0.833 mL/min/kg
SMILES: Cc1ncc(-c2cn3ccnc3c(Nc3ccc(N4CCN(C5COC5)CC4)c(OCCO)c3)n2)nc1N [Ex.-7, 2-(5-((6-(6-amino-5-methylpyrazin-2-yl)imidazo[1,2-a]pyrazin-8-yl)amino)-2-(4-(oxetan-3-yl)piperazin-1-yl)phenoxy)ethanol]

Reference: patent publication US20160375019A1, “TREATMENT OF CHRONIC GRAFT VERSUS HOST DISEASE WITH SYK INHIBITORS” (Gilead Sciences, Inc., priority 2015, published 2016)
